Key:
Assay type in all cases: cell-based
[1] = system: human Burkitt's lymphoma cell line Namalwa; experiment: Caspase cascade activation in Namalwa cells; conditions: Burkitts lymphoma cell, 48 h incubation, read-out: caspase potency EC50 Namalwa
How it was run: (§1)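 Cells in medium + 10% FCS were exposed to compound at 0.016 to 10 μM final for 48 h at 37° C. Lysis buffer (pH 7.2, DTT, lysolecithin) containing 14 μM Ac-DEVD-R110 was then added for 3 h at room temperature, read at ex 485/em 530 nm. Net RFU was taken relative to untreated control, and EC50 came from a sigmoidal fit.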

[2] = system: human lymphoma cell line Raji; experiment: Caspase cascade activation in Raji cells; conditions: RAJ1 cells, 48 h incubation, read-out: caspase potency EC50 RAJ1
How it was run: as §1

[3] = system: human B cell lymphoblastoid cell line Ramos; experiment: Caspase cascade activation in Ramos cells; conditions: 48 h incubation, read-out: caspase potency EC50 RAMOS
How it was run: as §1

[4] = system: human hepatocellular carcinoma cell line SNU398; experiment: Caspase cascade activation in SNU398 cells; conditions: SNU-398, 48 h incubation, read-out: caspase potency EC50 SNU398
How it was run: as §1

[5] = system: Human breast cancer cell lines T-47D; experiment: Caspase cascade activation (Ac-DEVD-R110 fluorogenic substrate) in T-47D cells; conditions: T47D cells, 48 h incubation, read-out: caspase potency EC50 T47D
How it was run: as §1

[6] = system: Human breast cancer cell lines MDAMB435; experiment: Inhibition of cell proliferation (GI50) in MDAMB435 cells; conditions: MDA MB 435 cells, 48 h incubation
Procedure: (§2) Human breast cancer cell lines T-47D, MX1 and MDAMB435, human colon carcinoma cell line HCT116, human leukemia cell line K562, human lymphoma cell line Raji, human B cell lymphoblastoid cell line Ramos, and human Burkitt's lymphoma cell line Namalwa were grown and harvested as in Example 14. An aliquot of […] of cells (4.4×10^4 cells/mL) was added to a well of a 96-well microtiter plate containing 5 μL of a 10% DMSO in RPMI-1640 media solution containing 10 nM to 100 μM of 6-(3,4-dimethoxyphenyl)-3-(2-methoxyphenyl)-[1,2,4]triazolo[3,4-b][1,3,4]thiadiazole (1 nM to 10 μM final). An aliquot of 45 μL of cells was added to a well of a 96-well microtiter plate containing 5 μL of a 10% DMSO in RPMI-1640 media solution without compound as the control sample for maximal cell proliferation (LMax). The samples were mixed by agitation and then incubated at 37° C. for 48 h in a 5% CO2-95% humidity incubator. After incubation, the samples were removed from the incubator and 25 μL of CellTiter-Glo™ reagent (Promega) was added. The samples were mixed by agitation and incubated at room temperature for 10-15 min. Plates were then read using a luminescent plate reader (Model SPECTRAfluor Plus, Tecan) to give Ltest values.
(§3) The samples were mixed by agitation and then incubated at 37° C. for 0.5 h in a 5% CO2-95% humidity incubator. After incubation, the samples were removed from the incubator and 25 μL of CellTiter-Glo™ reagent (Promega) was added. The samples were mixed by agitation and incubated at […] 10-15 min at room temperature in a 5% CO2-95% humidity incubator. Fluorescence was read as above, (LStart) defining luminescence for initial cell number used as baseline in GI50 determinations.
(§4) GI50 (dose for 50% inhibition of cell proliferation) is the concentration where [(LTest−LStart)/(LMax−LStart)]=0.5.

[7] = system: Human breast cancer cell lines T-47D; experiment: Inhibition of cell proliferation (GI50, CellTiter-Glo) in T-47D cells; conditions: T47D cells, 48 h incubation
Procedure: as §2, §3, §4

[8] = system: human Burkitt's lymphoma cell line Namalwa; experiment: Inhibition of cell proliferation (GI50) in Namalwa cells; conditions: Burkitts lymphoma cell, 48 h incubation
Procedure: as §2, §3, §4

[9] = system: human B cell lymphoblastoid cell line Ramos; experiment: Inhibition of cell proliferation (GI50) in Ramos cells; conditions: 48 h incubation
Procedure: as §2, §3, §4

[10] = system: Human breast cancer cell lines MX1; experiment: Inhibition of cell proliferation (GI50) in MX1 cells; conditions: 48 h incubation
Procedure: as §2, §3, §4

[11] = system: human leukemia cell line K562; experiment: Inhibition of cell proliferation (GI50) in K562 cells; conditions: 48 h incubation
Procedure: as §2, §3, §4

[12] = system: human lymphoma cell line Raji; experiment: Inhibition of cell proliferation (GI50) in Raji cells; conditions: 48 h incubation
Procedure: as §2, §3, §4

[13] = system: human colon carcinoma cell line HCT116; experiment: Caspase cascade activation in HCT116 cells; conditions: HCT-116, 48 h incubation, read-out: caspase potency EC50 HCT116
How it was run: as §1

[14] = system: human cancer cell line H1299; experiment: Caspase cascade activation in H1299 cells; conditions: NCI-H1299, 48 h incubation, read-out: caspase potency EC50 H1299
Procedure: Human breast cancer cell lines T-47D, human hepatocellular carcinoma cell line SNU398, human colon carcinoma cell line HCT116, human cancer cell line H11299, human Burkitt's lymphoma cell line Namalwa, human lymphoma cell line Raji, and human B cell lymphoblastoid cell line Ramos were grown according to media component mixtures designated by American Type Culture Collection+10% FCS (Invitrogen Corporation), in a 5% CO2-95% humidity incubator at 37° C. T-47D and H1299 cells were maintained at a cell density between 50 and 80% confluency at a cell density of 0.1 to 0.6×10^6 cells/mL. Cells were harvested at 600×g and resuspended at 0.65×10^6 cells/mL into appropriate media+10% FCS. An aliquot of 22.5 μL of cells was added to a well of a 384-well microtiter plate containing 2.5 μL of a 10% DMSO in RPMI-1640 media solution containing 0.16 to 100 μM of 6-(3,4-dimethoxyphenyl)-3-(2-methoxyphenyl)-[1,2,4]triazolo[3,4-b][1,3,4]thiadiazole or other test compound (0.016 to 10 μM final). An aliquot of 22.5 μL of cells was added to a well of a 384-well microtiter plate containing 2.5 μL of a 10% DMSO in RPMI-1640 media solution without test compound as the control sample. The samples were mixed by agitation and then incubated at 37° C. for 48 h in a 5% CO2-95% humidity incubator. After incubation, the samples were removed from the incubator and 25 μL of a solution containing 14 μM of N-(Ac-DEVD)-N′-ethoxycarbonyl-R110 (SEQ ID No.:1) fluorogenic substrate (Cytovia, Inc.; WO99/18856), 20% sucrose (Sigma), 20 mM DTT (Sigma), 200 mM NaCl (Sigma), 40 mM Na PIPES buffer pH 7.2 (Sigma), and 500 μg/mL lysolecithin (Calbiochem) was added. The samples were mixed by agitation and incubated at room temperature. Using a fluorescent plate reader (Model SPECTRAfluor Plus, Tecan), an initial reading (T=0) was made approximately 1-2 min after addition of the substrate solution, employing excitation at 485 nm and emission at 530 nm, to determine the background fluorescence of the control sample. After the 3 h incubation, the samples were read for fluorescence as above (T=3 h).
The Relative Fluorescence Unit values (RFU) were used to calculate the sample readings as follows: RFU(T=3h)−Control RFU(T=0)=Net RFU(T=3h)
The activity of caspase cascade activation was determined by the ratio of the net RFU value for 6-(3,4-dimethoxyphenyl)-3-(2-methoxyphenyl)-[1,2,4]triazolo[3,4-b][1,3,4]thiadiazole (Example I) or other test compound to that of control samples. The EC50 (nM) was determined by a sigmoidal dose-response calculation (Prism 3.0, GraphPad Software Inc.).

[15] = system: human colon carcinoma cell line HCT116; experiment: Inhibition of cell proliferation (GI50) in HCT116 cells; conditions: HCT 116 cells, 48 h incubation
Procedure: as §2, §3, §4

Structure (SMILES) | EC50 [1] [nM] | EC50 [2] [nM] | EC50 [3] [nM] | EC50 [4] [nM] | EC50 [5] [nM] | GI50 [6] [nM] | GI50 [7] [nM] | GI50 [8] [nM] | GI50 [9] [nM] | GI50 [10] [nM] | GI50 [11] [nM] | GI50 [12] [nM] | EC50 [13] [nM] | EC50 [14] [nM] | GI50 [15] [nM]
COc1ccc(-c2nn3c(-c4ccccc4C)nnc3s2)cc1OC [E, 6-(3,4-Dimethoxyphenyl)-3-o-tolyl-[1,2,4]triazolo[3,4-b][1,3,4]thiadiazole] | 253 | 274 | 235 | 507 | 561 | 894 | 3850 | 7870 | 3000 | 4000 | 2490 | 9400 | 5020 | 3000 | 6220
COc1ccc(-c2nn3c(-c4ccccc4Cl)nnc3s2)cc1OC [F, 3-(2-Chlorophenyl)-6-(3,4-dimethoxyphenyl)-[1,2,4]triazolo[3,4-b][1,3,4]thiadiazole] | 5320 | 5270 | 5300 | 4460 | 2690 | 1070 | 4030 | 9040 | 4000 | 4000 | 2730 | 8000 | 5160 | 5310 | 7920
COc1ccccc1-c1nnc2sc(-c3ccc(Br)cc3)nn12 [H, 6-(4-Bromophenyl)-3-(2-methoxyphenyl)-[1,2,4]triazolo[3,4-b][1,3,4]thiadiazole] | 344 | 501 | 253 | 261 | 563 | 48 | 217 | 520 | 120 | 400 | 626 | 700 | 537 | 733 | 844
COc1ccc(-c2nn3c(-c4ccccc4OC)nnc3s2)cc1OC [I, 6-(3,4-dimethoxyphenyl)-3-(2-methoxyphenyl)-[1,2,4]triazolo[3,4-b][1,3,4]thiadiazole] | 412 | 521 | 349 | 300 | 563 | 136 | 261 | 2000 | 2000 | 1030 | 2080 | 2000 | 523 | 808 | 2000
